Data set [1] has as its target T1, Sodium- and chloride-dependent glycine transporter 1 (Homo sapiens) (UniProt P48067).
T1 sequence (whole entry): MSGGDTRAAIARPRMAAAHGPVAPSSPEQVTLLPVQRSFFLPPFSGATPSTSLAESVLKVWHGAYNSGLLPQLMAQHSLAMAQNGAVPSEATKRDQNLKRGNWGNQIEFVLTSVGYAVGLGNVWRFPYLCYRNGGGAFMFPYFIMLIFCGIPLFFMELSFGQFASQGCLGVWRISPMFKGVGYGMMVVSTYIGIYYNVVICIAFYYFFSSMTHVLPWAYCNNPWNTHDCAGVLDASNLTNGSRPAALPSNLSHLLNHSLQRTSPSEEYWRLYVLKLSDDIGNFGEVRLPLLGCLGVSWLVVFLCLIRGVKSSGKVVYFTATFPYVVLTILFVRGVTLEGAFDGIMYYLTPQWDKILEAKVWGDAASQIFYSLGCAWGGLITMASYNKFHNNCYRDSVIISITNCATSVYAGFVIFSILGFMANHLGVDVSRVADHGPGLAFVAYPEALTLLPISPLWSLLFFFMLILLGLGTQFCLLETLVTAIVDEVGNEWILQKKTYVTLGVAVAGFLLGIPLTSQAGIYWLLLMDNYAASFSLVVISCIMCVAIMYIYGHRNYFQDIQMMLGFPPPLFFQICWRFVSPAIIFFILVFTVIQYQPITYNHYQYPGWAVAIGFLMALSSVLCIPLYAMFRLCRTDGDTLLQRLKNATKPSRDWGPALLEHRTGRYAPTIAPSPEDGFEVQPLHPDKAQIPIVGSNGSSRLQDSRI
Kind of data set: Competitive inhibition of GlyT1 (unknown origin) assessed as [14C]-glycine transport by Eadie-Hoffstee plot analysis.

The target of data set [2] is T2, Sodium- and chloride-dependent glycine transporter 2 (Homo sapiens, UniProt Q9Y345).
T2 sequence (Q9Y345 whole entry): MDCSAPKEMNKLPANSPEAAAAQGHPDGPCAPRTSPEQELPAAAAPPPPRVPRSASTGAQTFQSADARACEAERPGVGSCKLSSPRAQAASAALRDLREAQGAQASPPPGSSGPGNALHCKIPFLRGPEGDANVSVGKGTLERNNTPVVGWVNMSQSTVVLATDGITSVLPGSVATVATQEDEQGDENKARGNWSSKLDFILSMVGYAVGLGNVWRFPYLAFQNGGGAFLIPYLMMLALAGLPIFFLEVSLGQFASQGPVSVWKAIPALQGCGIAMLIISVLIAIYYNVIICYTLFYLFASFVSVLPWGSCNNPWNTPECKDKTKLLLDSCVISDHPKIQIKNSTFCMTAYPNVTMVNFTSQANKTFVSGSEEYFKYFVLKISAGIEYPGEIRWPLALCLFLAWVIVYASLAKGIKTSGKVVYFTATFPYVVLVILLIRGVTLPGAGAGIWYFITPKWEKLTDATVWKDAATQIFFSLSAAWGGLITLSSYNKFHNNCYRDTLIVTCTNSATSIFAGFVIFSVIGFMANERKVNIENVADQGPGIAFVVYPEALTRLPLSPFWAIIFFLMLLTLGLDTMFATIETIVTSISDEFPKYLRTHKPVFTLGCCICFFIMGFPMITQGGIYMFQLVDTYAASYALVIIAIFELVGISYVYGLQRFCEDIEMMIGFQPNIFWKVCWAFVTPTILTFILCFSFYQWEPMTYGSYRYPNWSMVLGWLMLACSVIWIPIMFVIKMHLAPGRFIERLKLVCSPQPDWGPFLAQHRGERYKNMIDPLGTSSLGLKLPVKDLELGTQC
Kind of data set: Inhibition of GlyT2 (unknown origin) assessed as [14C]-glycine transport.

Data set [3] has as its target T3, Sodium- and chloride-dependent glycine transporter 1 (Homo sapiens, UniProt P48067).
T3 sequence (P48067 whole entry): T1 sequence (whole entry)
Put plainly: Inhibition of GlyT1 (unknown origin) assessed as [14C]-glycine transport.

Data set [4] is described as follows: Metabolic stability in rat liver microsomes assessed as compound remaining after 90 mins. Format: ADME. The note with it: read-out: Stability. On the technique in general: Liver microsomes are vesicles of endoplasmic reticulum, rich in cytochrome P450 enzymes.
Data set [5] can be described thus: Fraction unbound in rat. It is filed as ADME. The note with it: in vitro.
The nature of data set [6]: Inhibition of CYP450 (unknown origin). Format: ADME, Homo sapiens.

Calls of active or inactive are those of the source. The calls are words filed in the database; no cut-off is given here.

Regarding `CCCS(=O)(=O)N1CCC(C(NC(=O)c2ccc(Cl)cc2Cl)c2ccccc2)CC1` (racemic), the “competitive inhibition (active/inactive)” value in data set [1] is “Active”. In general, IC50 refers to the concentration needed to halve the response being measured. For `Cn1cnc(S(=O)(=O)N2CC3CCC(NC(=O)c4cccc(F)c4)C3C2)c1` (racemic), the values for the IC50 in data set [2] and in data set [3] were above 30 µM and above 10 µM, respectively. Consider `Cn1cnc(S(=O)(=O)N2CC3CCC(NC(=O)c4ccc(F)cc4)C3C2)c1` (racemic), for which the concentration for half-maximal inhibition (IC50) in data set [2] is above 30 µM. As for `O=C(NC1CCC2CN(S(=O)(=O)c3cccs3)CC21)c1ccc(Cl)cc1Cl` (racemic), the IC50 in data set [2] is above 30 µM; in data set [3] it was above 10 µM. As for `Cn1cnc(S(=O)(=O)N2CC3CCC(NC(=O)c4c(F)cccc4F)C3C2)c1` (racemic), the IC50 in data set [2] is above 30 µM.

Consider `Cn1cnc(S(=O)(=O)N2CC(C(NC(=O)c3ccc(Cl)cc3Cl)c3ccccn3)C2)c1` (racemic), for which the “competitive inhibition (active/inactive)” value in data set [1] is “Active”. Moreover, in data set [4], the remaining at 1.5 h came out at 75%. The compound also returned a Fu in data set [5] of 14%. In data set [6], this compound had an IC50 above 10 µM. As to `Cn1cnc(S(=O)(=O)N2CC3CCC(NC(=O)c4ccc(Cl)cc4Cl)C3C2)c1` (racemic), the IC50 in data set [2] was above 30 µM; in data set [6], above 10 µM. In addition, the remaining at 1.5 h in data set [4] was found to be 30%. Moreover, in data set [5], the Fu is listed as 8.1%. `Cn1cnc(S(=O)(=O)N2CC(C(NC(=O)c3ccc(Cl)cc3Cl)c3cccs3)C2)c1` (racemic): the “competitive inhibition (active/inactive)” value in data set [1] is “Active”.

For the compound `CCCS(=O)(=O)N1CC2CCC(NC(=O)c3ccc(Cl)cc3Cl)C2C1` (racemic), the IC50 in data set [2] was above 30 µM; in data set [3] it was above 10 µM.

In the case of `Cn1cnc(S(=O)(=O)N2CC(C(NC(=O)c3ccc(Cl)cc3Cl)c3ccccc3)C2)c1` (racemic), the “competitive inhibition (active/inactive)” value in data set [1] is “Active”. Still for that read-out and setting: the same measure for `Cn1cnc(S(=O)(=O)N2CCC(C(NC(=O)c3ccc(Cl)cc3Cl)c3ccccc3)CC2)c1` (racemic): “Active”. For `CCCCS(=O)(=O)N1CC2CCC(NC(=O)c3ccc(Cl)cc3Cl)C2C1` (racemic), the IC50 in data set [2] is above 30 µM; in data set [3], above 10 µM. For `O=C(NC1CCC2CN(S(=O)(=O)c3ccccn3)CC21)c1ccc(Cl)cc1Cl` (racemic) the same measures were above 30 µM and above 10 µM. On to `Cn1cnc(S(=O)(=O)N2CC3CCC(NC(=O)c4ccc(F)cc4F)C3C2)c1` (racemic), for which the IC50 in data set [2] is above 30 µM. `CCS(=O)(=O)N1CC2CCC(NC(=O)c3ccc(Cl)cc3Cl)C2C1` (racemic): the IC50 in data set [2] was above 30 µM; in data set [3], above 10 µM.

`Cn1cnc(S(=O)(=O)N2CC3CCC(NC(=O)c4ccccc4F)C3C2)c1` (racemic): the IC50 in data set [2] was above 30 µM. Consider `Cn1cc(S(=O)(=O)N2CC3CCC(NC(=O)c4ccc(Cl)cc4Cl)C3C2)nn1` (racemic), for which the IC50 in data set [2] was above 30 µM; in data set [3] it was 0.015 µM. As to `CCCS(=O)(=O)N1CC(C(NC(=O)c2ccc(Cl)cc2Cl)c2ccccc2)C1` (racemic), the “competitive inhibition (active/inactive)” value in data set [1] was “Active”. With `Cn1cnc(S(=O)(=O)N2CC3CCC(NC(=O)c4ccc(Cl)c(Cl)c4)C3C2)c1` (racemic), the IC50 in data set [2] is above 30 µM. Turning to `Cn1cnc(S(=O)(=O)N2CCC(C(NC(=O)c3ccc(Cl)cc3Cl)c3cccs3)CC2)c1` (racemic), the “competitive inhibition (active/inactive)” value in data set [1] was “Active”.

As for `Cn1cnc(S(=O)(=O)N2CC3CCC(NC(=O)c4ccc(F)c(F)c4)C3C2)c1` (racemic), the IC50 is above 30 µM in data set [2] and 1.57 µM in data set [3]. Regarding `Cn1cnc(S(=O)(=O)N2CC3CCC(NC(=O)C4CCCCC4)C3C2)c1` (racemic), in data set [2], the IC50 is above 30 µM. For the compound `Cn1cnc(S(=O)(=O)N2CCC(C(NC(=O)c3ccc(Cl)cc3Cl)c3ccccn3)CC2)c1` (racemic), the “competitive inhibition (active/inactive)” value in data set [1] is “Active”. As to `Cn1cnc(S(=O)(=O)N2CC3CCC(NC(=O)c4ccccc4C(F)(F)F)C3C2)c1` (racemic), the “competitive inhibition (active/inactive)” value in data set [1] was “Active”. Further, the IC50 in data set [2] is above 30 µM; in data set [3], 0.112 µM.

Consider `O=C(NC1CCC2CN(S(=O)(=O)c3ccccc3)CC21)c1ccc(Cl)cc1Cl` (racemic), for which the IC50 is above 30 µM in data set [2] and above 10 µM in data set [3]. For `Cn1cnc(S(=O)(=O)N2CC3CCC(NC(=O)c4ccccc4Cl)C3C2)c1` (racemic) the same measures were above 30 µM and 0.115 µM. Regarding `Cn1cnc(S(=O)(=O)N2CC3CCC(NC(=O)c4ccc(Cl)cc4)C3C2)c1` (racemic), in data set [2], the IC50 was above 30 µM.

The values above are taken from ChEMBL document CHEMBL3112556, “Novel GlyT1 inhibitor chemotypes by scaffold hopping. Part 2: development of a [3.3.0]-based series and other piperidine bioisosteres” (Bioorg Med Chem Lett, 2014).
